The data set can be described thus: Pharmacokinetics of VSP034 and VSP035 after oral administration of a liposomal formulation. The following applies: for AUC(0-inf) / Cmax / MRT inf / Tmax / half-life: female, Sprague-Dawley; for AUC(0-inf): AUC0-inf; for MRT inf: MRT0-inf. Type of data set: in vivo, female Sprague-Dawley rats. The method, then:
The pharmacokinetic parameters of VSP034 and VSP035 encapsulated as liposomal formulation were assessed after the administration of a single 100 mg/kg dose by oral gavage to 6 female Sprague-Dawley rats weighting 250 grams (+25 g). The animals were randomized into two experimental groups (Groups 1 and 2), each composed of 3 rats. Rats belonging to group 1 were administered with VSP034 and rats belonging to group 2 were administered with VSP035. Blood was collected at baseline and 15 min, 30 min, 1, 2, 4, 6, 8, and 24 hours after the oral gavage. The rats were sacrificed 24 hours after the dosing. Blood was collected at each timepoint from the caudal vein, with the exception of the last collection (24 hours), which was performed by intracardiac puncture at the moment of sacrifice under isoflurane anesthesia. The animals were weighted immediately before the dosing to assess the proper dose and carefully monitored during the experiment. They were kept in standard housing conditions, meeting the legal requirements for the correct housing of rodents for a period not exceeding the maximum experimental endpoints. Ad libitum access to water and food was allowed. […] Humane endpoints have not been reached. The pharmacokinetic analysis was performed using Microsoft Excel plug-in PK Solver. Pharmacokinetic parameters of two compounds are compared with the software GraphPad Prism ver. 8.0 by Student's t test for unpaired data. A p value <0.05 is considered statistically significant.
Analytical method: Compound analysis was performed following the bioanalytical method as in Test 13. In this study, carbamazepine was used as an internal standard.
Pharmacokinetic analysis: A pharmacokinetic analysis of VSP034 and VSP035 was performed using the Excel plug-in 2.0 PK Solver. The results have been fitted according to a non-compartmental modelling following extravascular administration. Concentration-vs-time curves for VSP034 and VSP035.
The main pharmacokinetic parameters (half-life, t1/2; time to maximum plasma concentration, Tmax; maximum plasma concentration, Cmax, AUC Extrapolated to Infinity, AUC0-inf; mean residence time, MRT; Apparent Volume of Distribution During Terminal Phase, Vz/F; and apparent oral clearance, CL/F) were calculated from the coefficients and exponents of the best-fits by using standard formulae.

Setting [1] is: rat, in vivo, po, 100 mg/kg, Mean.
Where [2] appears, read: rat, in vivo, po, 100 mg/kg, Median.

Take `CN1CCC(CN2C(=O)c3ccccc3[C@H](C(=O)Nc3cccc(N4CCN(C)CC4)c3)[C@H]2c2ccc(C(F)(F)F)cc2)CC1` [VSP035, (3S,4S)-N-[3-(4-methylpiperazin-1-yl)phenyl]-2-[(1-methylpiperidin-4-yl)methyl]-1-oxo-3-[4-(trifluoromethyl)phenyl]-1,2,3,4-tetrahydroisoquinoline-4-carboxamide]: under setting [1], the AUC(0-inf) (commonly total exposure, with the tail of the curve extrapolated) was determined as 2230 ng·h/mL; the peak level (Cmax) was 246 ng/mL; the MRT inf (in general, a mean duration of stay, worked out from the concentration-time curve) is 6.83 h; the Tmax (as a rule, the time at which the peak concentration occurs) was found to be 2.42 h. Further, under setting [2], the AUC(0-inf) amounted to 1480 ng·h/mL, the peak level (Cmax) was 277 ng/mL, the MRT inf came to 6.59 h and the time of peak concentration (Tmax) was determined as 1 h. The half-life (in general, the time needed for the level to fall by half in the phase considered) (rat, in vivo, po, 100 mg/kg, t1/2, Mean) is 4.43 h. Moreover, the half-life (rat, in vivo, po, 100 mg/kg, t1/2, Median) is 3.57 h. Also, where the note is “rat, in vivo, po, 100 mg/kg”, the “Vz/F, Mean” value is 0.291 L/g and the “Vz/F, Median” value turned out to be 0.278 L/g. For the same compound, the “condition of the rats after administration of the liposomal formulation” value (single 100 mg/kg oral gavage, observed 24 hours) is listed as “did not show any sign of suffering or abnormal behavior”. Moreover, the “AUC relative to that of VSP034” value (single 100 mg/kg oral, significantly higher) is reported as 4 fold.

(Values after US12630523B2, “Isoquinoline derivatives for use as antiviral and antitumour agents” (priority 2021, dated 2026).)
